Results as given in US11434222B2, “MAGL inhibitors” (H. LUNDBECK A/S, priority 2020, dated 2022).
Read-outs that look alike come from different tables or passages of the source.

Assays:
[1] = tested on: tonic hind limb extensor seizure (MEST); assay: Maximal electroshock seizure threshold (MEST) model in the rat; type: in vivo; details: 10 mg/kg p.o., 240 min pre-treatment, FIG. 3 and FIG. 4
Method: In the MEST model, a low-intensity electrical current of high frequency and short duration is applied to induce tonic convulsions.
Animals were randomly assigned to vehicle, compound treatment or Lamotrigine dose groups. Animals were dosed at 5 mL/kg according to treatment groups (n=12 or 16/group), with either vehicle (0.5% MC) p.o. for Example 6, vehicle (10% HP-b-CD) for Example 8, test compound at 10 mg/kg p.o. 240 min pre-treatment time, or Lamotrigine p.o. 360 min pre-treatment time.
Rats were individually assessed for production of a tonic hind limb extensor seizure following a single corneally delivered electroshock of 0.3 second duration, using an ‘up and down method’ of shock titration (Kimball A W et al., 1957). Thus, the first rat within a treatment group was given a shock at the expected or estimated CC50 current (current producing tonic hind limb extensor seizures in 50% of animals). […] This procedure was continued for all rats within a treatment group. Induction of seizure was measured as an all-or-nothing effect scored as either present (+) or absent (0) for each animal. […]
Significant differences between drug-treated animals and controls were assessed according to Litchfield and Wilcoxon (1949) or One-Way ANOVA followed by Dunnett's multiple comparisons test.

[2] = Free fraction in rat plasma and brain homogenate by equilibrium dialysis; type: in vitro ADME
Method: Brain disposition was evaluated in male Sprague-Dawley rats (n=3, standard body weight). Briefly, test compound was formulated as a simple suspension, in 0.5% HPMC in water, then administered by oral gavage (5 mg/kg, 5 mL/kg). Four hours post dosing, rats were sacrificed, and terminal blood and brain samples were taken. Blood was obtained via cardiac puncture (0.1 mL) and was added into 0.4 mL CH3CN for precipitation immediately. The samples were stored at −75+/−15° C. prior to analysis. Brain tissue samples were collected after animals were fully exsanguinated, and the tissues were washed with cold saline quickly. After sectioning, brain sections were immediately frozen in liquid nitrogen and stored at −75+/−15° C. prior to analysis. Blood and brain samples were analyzed by LC/MS/MS using an optimized analytical method. Concentrations of test compound in blood and brain were quantified against matrix matched calibration standards. The total blood, plasma, and brain concentration data are presented in Table 2 alongside the calculated brain Kp (total brain concentration:total plasma concentration ratio), the calculated brain kp,uu (unbound brain concentration:unbound plasma concentration ratio), the free fractions in rat plasma and brain, and the in vitro rat blood to plasma distribution profile. The total plasma concentration data were calculated from the total blood concentration data using rat blood to plasma ratio which was measured in vitro (1 μM test compound). For kp,uu determination, the free fraction in rat plasma and brain homogenate were measured in vitro by standard equilibrium dialysis (1 μM test compound and 6 h equilibration against buffer pH 7.4; for rat plasma analysis, 100 mM stock solution of diisopropyl fluorophosphate was added to the pre-warmed rat plasma prior to adding test article).

[3] = tested on: rat formalin paw model of inflammatory pain; assay: Rat formalin paw model of inflammatory pain; type: in vivo
Method: In the rat formalin paw model formalin is administered into the right […] of a rat in order to induce pain (observed by hind limb licking duration and frequency).
Male Sprague Dawley rats were divided into three cohorts to enable testing in the Laboras™ equipment to be carried out over three days in a balanced design to give treatment groups of 10. On the day of the study, male Sprague Dawley rats were weighed, tail marked and dosed orally with vehicle, test compound (0.1, 0.3, 0.6, 1, 3 or 10 mg/kg) or pregabalin (30 mg/kg) 4 h pre-test using a 5 mL/kg dosing volume. For Example 6 the vehicle used was 0.5% methylcellulose in water and for Example 8 the vehicle used was 20% HP-b-CD. Up to six animals were dosed at a time. After 4 h, rats received an intraplantar injection of 50 μL of a 2.5% v/v formalin solution into the right hind paw. Rats were immediately placed into the Laboras™ cages and data acquisition started. The primary measures recorded by Laboras™ for the formalin paw model are hind limb licking duration and frequency. Locomotion is also reported as maximum speed, average speed when moving or over the whole-time bin and distance travelled. After 40 min, when data acquisition was complete, rats were removed from the cages.
On removal from the test cages, rats were anaesthetised with the gaseous anaesthetic isoflu-rane (5% v/v isoflurane in oxygen) and blood samples were collected by cardiac puncture. Brains were then removed, rinsed in phosphate buffered saline (PBS), hemi-sected and frozen separately in liquid nitrogen.
Data were analysed with Statistica software (TIBCO, USA version 11.1). All data are expressed as means±standard error of the mean (sem) to one decimal place. […] Time course data were analysed by repeated measures analysis of variance (ANOVA) followed by one-way ANOVAs at each time point and subsequent Dunnett's post hoc tests. […]

[4] = rat brain homogenate, buffer pH 7.4, read-out: Rat brain free fraction
[5] = rat plasma, buffer pH 7.4, read-out: Rat plasma free fraction

O=C(Nc1cccnn1)[C@H]1CC12CCN(C(=O)OC(C(F)(F)F)C(F)(F)F)CC2 [Example 6, 1,1,1,3,3,3-hexafluoropropan-2-yl (S)-1-(pyridazin-3-ylcarbamoyl)-6-azaspiro[2.5]octane-6-carboxylate]
anticonvulsant activity in the MEST (seizure threshold CC50) [1]: anticonvulsant activity
fraction unbound at 6 h, 1 μM [2, 4]: 0.04
fraction unbound at 6 h, 1 μM [2, 5]: 0.055
measure of spontaneous pain (hind limb licking frequency) ([3]; 0.6 mg/kg, 3 mg/kg and 10 mg/kg p.o. 4 h pre-test, early and/or late phases, FIG. 1): statistically significant reduction

O=C(NC1CCOCC1)[C@H]1CC12CCN(C(=O)OC(C(F)(F)F)C(F)(F)F)CC2 [Example 8, 1,1,1,3,3,3-hexafluoropropan-2-yl (S)-1-[(oxan-4-yl)carbamoyl]-6-azaspiro[2.5]octane-6-carboxylate]
anticonvulsant activity in the MEST (seizure threshold CC50) [1]: anticonvulsant activity
fraction unbound at 6 h, 1 μM [2, 4]: 0.167
fraction unbound at 6 h, 1 μM [2, 5]: 0.427
measure of spontaneous pain (hind limb licking frequency) ([3]; 0.3 mg/kg and 0.6 mg/kg p.o. 4 h pre-test, late phase, FIG. 2): statistically significant reduction
measure of spontaneous pain (hind limb licking frequency) ([3]; 1 mg/kg, 3 mg/kg and 10 mg/kg p.o. 4 h pre-test, both early and late phases, FIG. 2): statistically significant reduction
